{"source": "patent US5314914A", "about": "“Methods and compositions for combatting herpes viruses” (BioMega/Boehringer Ingelheim Research Inc., priority 1988, dated 1994)", "key": {"[1]": {"biological_target": "HSV-1 ribonucleotide reductase (Human alphaherpesvirus 1 strain 17, UniProt P08543+P10224)", "sequence (P08543 whole entry)": "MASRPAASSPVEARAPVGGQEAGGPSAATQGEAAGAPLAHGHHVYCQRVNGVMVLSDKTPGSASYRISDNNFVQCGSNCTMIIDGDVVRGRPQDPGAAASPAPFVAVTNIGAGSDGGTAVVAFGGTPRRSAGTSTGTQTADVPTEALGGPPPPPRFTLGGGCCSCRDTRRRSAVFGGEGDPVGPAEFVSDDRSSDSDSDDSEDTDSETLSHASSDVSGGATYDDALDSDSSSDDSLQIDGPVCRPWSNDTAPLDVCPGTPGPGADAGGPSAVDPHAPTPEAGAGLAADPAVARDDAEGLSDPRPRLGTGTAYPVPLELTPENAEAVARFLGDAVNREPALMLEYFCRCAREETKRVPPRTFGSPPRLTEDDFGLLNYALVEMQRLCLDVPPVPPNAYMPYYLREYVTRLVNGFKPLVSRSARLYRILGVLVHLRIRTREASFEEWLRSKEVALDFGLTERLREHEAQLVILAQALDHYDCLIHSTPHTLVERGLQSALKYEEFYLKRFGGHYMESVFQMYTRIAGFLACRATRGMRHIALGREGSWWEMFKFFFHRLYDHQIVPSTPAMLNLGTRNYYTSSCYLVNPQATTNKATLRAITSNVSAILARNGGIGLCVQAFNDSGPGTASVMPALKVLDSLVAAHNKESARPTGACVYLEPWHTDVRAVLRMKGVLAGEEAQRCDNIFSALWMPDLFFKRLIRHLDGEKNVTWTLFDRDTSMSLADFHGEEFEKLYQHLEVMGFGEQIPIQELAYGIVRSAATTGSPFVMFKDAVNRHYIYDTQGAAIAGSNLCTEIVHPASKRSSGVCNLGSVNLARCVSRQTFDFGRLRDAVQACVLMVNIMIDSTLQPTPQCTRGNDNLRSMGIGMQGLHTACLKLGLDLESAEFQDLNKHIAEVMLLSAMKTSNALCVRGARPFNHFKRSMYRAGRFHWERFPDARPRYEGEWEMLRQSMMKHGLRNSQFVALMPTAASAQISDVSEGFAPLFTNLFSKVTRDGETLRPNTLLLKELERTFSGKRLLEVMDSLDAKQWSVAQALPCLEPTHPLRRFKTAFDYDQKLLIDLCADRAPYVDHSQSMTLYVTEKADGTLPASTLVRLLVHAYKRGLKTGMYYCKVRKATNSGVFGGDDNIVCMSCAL", "sequence (P10224 whole entry)": "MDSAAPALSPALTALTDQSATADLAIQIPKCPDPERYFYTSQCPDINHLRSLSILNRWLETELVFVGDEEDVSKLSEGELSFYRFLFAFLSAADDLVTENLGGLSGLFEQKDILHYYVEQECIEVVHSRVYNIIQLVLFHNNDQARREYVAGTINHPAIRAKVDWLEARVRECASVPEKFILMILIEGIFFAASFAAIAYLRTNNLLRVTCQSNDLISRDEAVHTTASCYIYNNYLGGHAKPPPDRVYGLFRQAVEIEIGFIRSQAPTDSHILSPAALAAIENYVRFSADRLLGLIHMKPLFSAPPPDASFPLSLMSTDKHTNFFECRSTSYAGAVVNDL", "assay": "HSV-1 ribonucleotide reductase inhibition (reduction of CDP)", "type": "biochemical, herpes simplex virus type 1 (strain F)", "settings": "for selective inhibition of the viral (HSV-1) ribonucleotide reductase over the cellular ribonucleotide reductase: HSV-1 versus hamster 96-V-2(600) ribonucleotide reductase"}, "[2]": {"biological_target": "T1, hamster 96-V-2(600) ribonucleotide reductase (Cricetulus griseus, UniProt G3I2K8+G3I3B7)", "T1 construct": "obtained from an overproducing strain of a Chinese hamster lung cell line; endogenous in cells; host or cells: overproducing strain 96-V-2(600) of a Chinese hamster lung cell line; partially purified", "T1 sequence (G3I2K8 entry or part of it)": "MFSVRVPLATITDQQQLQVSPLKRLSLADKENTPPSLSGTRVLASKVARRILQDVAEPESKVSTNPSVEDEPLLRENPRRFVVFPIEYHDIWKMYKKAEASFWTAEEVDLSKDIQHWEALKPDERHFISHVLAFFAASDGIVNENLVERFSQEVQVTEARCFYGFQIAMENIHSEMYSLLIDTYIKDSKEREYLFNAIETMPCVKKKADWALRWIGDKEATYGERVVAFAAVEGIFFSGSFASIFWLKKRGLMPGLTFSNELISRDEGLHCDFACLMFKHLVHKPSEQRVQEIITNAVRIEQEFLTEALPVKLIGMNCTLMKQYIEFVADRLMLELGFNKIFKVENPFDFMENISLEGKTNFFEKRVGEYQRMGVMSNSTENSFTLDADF", "T1 sequence (G3I3B7 entry or part of it)": "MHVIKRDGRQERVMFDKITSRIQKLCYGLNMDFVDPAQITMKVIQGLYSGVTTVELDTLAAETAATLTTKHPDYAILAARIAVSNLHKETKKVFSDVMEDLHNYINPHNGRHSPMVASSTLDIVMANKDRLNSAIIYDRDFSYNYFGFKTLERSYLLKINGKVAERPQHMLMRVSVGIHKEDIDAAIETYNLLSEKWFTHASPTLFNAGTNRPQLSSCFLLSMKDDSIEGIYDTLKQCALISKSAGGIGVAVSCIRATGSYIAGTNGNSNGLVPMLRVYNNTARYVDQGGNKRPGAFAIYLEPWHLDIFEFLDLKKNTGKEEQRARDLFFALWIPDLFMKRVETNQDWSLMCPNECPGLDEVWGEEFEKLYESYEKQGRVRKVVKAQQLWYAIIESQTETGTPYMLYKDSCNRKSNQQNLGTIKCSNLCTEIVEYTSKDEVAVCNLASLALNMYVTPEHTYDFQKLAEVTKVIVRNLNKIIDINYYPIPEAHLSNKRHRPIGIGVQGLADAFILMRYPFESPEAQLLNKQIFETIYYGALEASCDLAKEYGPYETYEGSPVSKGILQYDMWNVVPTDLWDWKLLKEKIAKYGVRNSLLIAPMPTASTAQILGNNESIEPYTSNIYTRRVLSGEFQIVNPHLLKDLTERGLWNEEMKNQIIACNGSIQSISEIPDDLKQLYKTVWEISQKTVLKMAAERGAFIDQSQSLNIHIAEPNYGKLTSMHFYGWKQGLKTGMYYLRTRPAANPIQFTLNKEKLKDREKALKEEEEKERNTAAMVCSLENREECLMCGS", "assay": "Hamster 96-V-2(600) ribonucleotide reductase inhibition (reduction of CDP)", "type": "biochemical, Chinese hamster", "settings": "partially purified enzyme 40 μg, in the presence of adenosine triphosphate (4 mM) and magnesium chloride (11.5 mM)", "protocol": "Hamster 96-V-2(600) ribonucleotide reductase (partially purified) was obtained from an overproducing strain of a Chinese hamster lung cell line as described by W. H. Lewis and P. R. Srinivasan, Mol. Cell Biol., 3, 1053 (1983).\nSamples of the HSV-1 ribonucleotide reductase (65 μg with a specific activity of 26 units per mg) were mixed with increasing concentrations of the test compound, i.e. the naphthalene noted in the title of this example, in a series of tubes. Ribonucleotide reductase activity was assayed by monitoring the reduction of cytidine diphosphate (CDP) as described by Cohen et al., supra. The standard reaction mixture, in a final volume of 60 μl, contained: 50 mM, N-2-hydroxyethylpiperazine-N'-2-ethanesulfonic acid (pH 7.8); 4 mM NaF, 30 mM DL-dithiothreitol (DTT); 1 mM bacitracin, 54 μM CDP and 0.25 μCi of [^3 H]CDP. After 30 minutes of incubation at 37° C., the reaction was stopped by immersing the tube in boiling water for 4 minutes. The precipitate was removed by centrifugation. Nucleotides in the supernatant were converted to nucleosides by enzymatic hydrolysis. The deoxyribonucleosides were subsequently separated from the ribonucleosides by ascending polyethyleneimine-celulose chromatography. […] The results, shown in FIGURE 1, are expressed as a percentage of the activity obtained in the controls."}}, "note": "pIC50: −log10 of the molar value."}
{"smiles": "COC1=C(OC)C(=O)c2cc(OC)ccc2C1=O", "note": "[2,3,6-trimethoxy-1,4-naphthalenedione]", "values": [{"measurement": "selective inhibition of the viral (HSV-1) ribonucleotide reductase over the cellular ribonucleotide reductase", "setting": "[1]", "result": "selective inhibition"}]}
{"smiles": "COC1=C(OC)C(=O)c2ccccc2C1=O", "note": "[2,3-dimethoxy-1,4-naphthalenedione]", "values": [{"measurement": "selective inhibition of the viral (HSV-1) ribonucleotide reductase over the cellular ribonucleotide reductase", "setting": "[1]", "result": "selective inhibition"}]}
{"smiles": "COC1=C(OC)C(=O)c2cc(Cl)ccc2C1=O", "note": "[6-Chloro-2,3-dimethoxy-1,4-naphthalenedione]", "values": [{"measurement": "selective inhibition of the viral (HSV-1) ribonucleotide reductase over the cellular ribonucleotide reductase", "setting": "[1]", "result": "selective inhibition"}, {"measurement": "inhibitory effect of increasing concentrations on HSV-1 ribonucleotide reductase activity (FIG. 1, percentage of control activity)", "setting": "[1]; increasing concentrations of the test compound", "result": "progressively greater inhibitory effect"}, {"measurement": "pIC50", "setting": "[2]", "result": "< 3.60"}]}
{"smiles": "CCOC1=C(OCC)C(=O)c2cc(Cl)ccc2C1=O", "note": "[6-chloro-2,3-diethoxy-1,4-naphthalenedione]", "values": [{"measurement": "selective inhibition of the viral (HSV-1) ribonucleotide reductase over the cellular ribonucleotide reductase", "setting": "[1]", "result": "selective inhibition"}]}
{"smiles": "CCCOC1=C(OCCC)C(=O)c2cc(Cl)ccc2C1=O", "note": "[6-chloro-2,3-dipropoxy-1,4-naphthalenedione]", "values": [{"measurement": "selective inhibition of the viral (HSV-1) ribonucleotide reductase over the cellular ribonucleotide reductase", "setting": "[1]", "result": "selective inhibition"}]}
{"smiles": "COC1=C(OC)C(=O)c2cc(C#N)ccc2C1=O", "note": "[6-cyano-2,3-dimethoxy-1,4-naphthalenedione]", "values": [{"measurement": "selective inhibition of the viral (HSV-1) ribonucleotide reductase over the cellular ribonucleotide reductase", "setting": "[1]", "result": "selective inhibition"}]}
